Experimental findings from US8871794B2, “Small-molecule agonists for type-2 orexin receptor” (Board of Regents, The University of Texas System, priority 2008, dated 2014) are described below.

Read-outs that look alike come from different tables or passages of the source.

One series deals with T1, OX1R (Homo sapiens, UniProt O43613).
T1 construct: Open reading frames of OX1R, OX2R and GRP (control) receptor were inserted into a bicistronic retrovirus expression vector; expressed in transfected cells; host or cells: CHO cells harboring ecotropic retroviral receptor, infected with retrovirus and selected with puromycin
T1 sequence (O43613 1-425): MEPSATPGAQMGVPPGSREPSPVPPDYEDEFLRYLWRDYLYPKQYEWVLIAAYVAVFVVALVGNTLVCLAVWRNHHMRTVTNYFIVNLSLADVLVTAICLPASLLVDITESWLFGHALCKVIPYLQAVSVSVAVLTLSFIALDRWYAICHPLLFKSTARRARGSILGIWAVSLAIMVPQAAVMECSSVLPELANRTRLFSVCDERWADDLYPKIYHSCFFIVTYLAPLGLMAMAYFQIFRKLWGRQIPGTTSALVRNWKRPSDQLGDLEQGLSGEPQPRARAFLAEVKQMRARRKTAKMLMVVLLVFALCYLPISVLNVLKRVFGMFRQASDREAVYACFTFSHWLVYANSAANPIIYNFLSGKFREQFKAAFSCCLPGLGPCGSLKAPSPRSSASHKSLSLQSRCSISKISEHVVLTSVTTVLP
The series is described as follows: Intracellular Calcium Transient Assay in OX1R-expressing CHO cells. It counts as cell-based. The method, then: DNA Construction: Open reading frames of OX1R, OX2R and GRP (control) receptor were inserted into a bicistronic retrovirus expression vector, pMXs-IRES-puror (pMXs-IP), which carried a FLAG™ epitope cDNA sequence at the beginning of the ORF sequences encoding their human polypeptides.
Transfection and retrovirus production: Transfection was carried out using FuGENE 6 (Roche Diagnostics Corp.) according to the manufacturer's recommendations. Retroviruse fluid was harvested after 48 hours post transfection.
Cell lines: To generate receptor expressing cells, CHO cells harboring ecotropic retroviral receptor were infected with a retroviral supernatant. After 24 hours post infection, the retrovirus supernatant was removed and infected cells were selected with 10 μg/ml of puromycin (Sigma-Aldrich, St. Louis, Mo.). […]
0.5 ml aliquot of the cell suspension was stimulated by addition of 5 μl of compound dissolved in DMSO. Changes of [Ca^2+]i transients in cells were measured at RT by using CAF-110 Intracellular Ion Analyser (JASCO, Tokyo) with the excitation wave lengths of 340 nm and 380 nm and emission wavelength of 500 nm

Another series has as its system No Receptor_CRE. The series is described as follows: CRE reporter assay, no receptor control. It counts as cell-based.
A short description of series [1]: IP pharmacokinetics in C57BL/6 mice (plasma and brain). It counts as in vivo, mouse. Conditions: for AUC / Clearance / Kp / Cmax / half-life: IP 20 mg/kg; for Kp: brain/plasma, ip, 20 mg/kg; for half-life: read-out: Terminal half life. The method, then:
Pharmacokinetics: Methods: Chembridge Compound 6037874 (“Yan7874”) was provided as a powdered stock and dissolved in DMSO at 50 mg/ml. The compound was formulated as 5% DMSO/5% Cremaphor EL/90% 5% dextrose, pH 7.2 such that compound could be administered to mice at 10-20 mg/kg in a volume of 0.2 ml by IV bolus.
A second experiment was conducted using 24 C57BL/6 mice (NCI, male, 6 weeks of age). These mice were weighed and injected with 20 mg/kg of compound formulated as described above IP in 0.2 ml. […] The mice were sacrificed as above in groups of three by inhalation overdose of CO2 and blood and brain obtained and processed as above.
An analytical method was developed to detect Yan7874 using LC/MS/MS.
A standard curve was developed in plasma in the following manner. 100 μl of plasma is spiked with varying concentrations of Yan7874. The plasma is allowed to sit 10′ at room temperature after vortexing. 200 μl of acetonitrile is added to precipitate plasma proteins and release bound drug. After vortexing, the sample is incubated 10′ at room temperature. 700 μl of PBS is added and the sample is centrifuged at 14,000 rpm in a standard microcentrifuge for 5′. 900 μl of supernatant is added to 1 ml of PBS. The entire sample is passed over a Waters OASIS HLB solid phased extraction column already primed by addition of 2 ml methanol and 2 ml H2O. The column is washed once with 2 ml of 5% methanol/2% NH4OH in H2O and once with 2 ml of 5% methanol/2% acetic acid in H2O and compound is eluted by addition of 2 ml of methanol containing 2% NH4OH. 500 μl of this is added to 500 μl of H2O containing 0.2% formic acid (final formic acid 0.1%). Samples are prepared in the same manner without addition of spiked compound. Brain tissue is prepared by homogenizing in 3× volume of PBS (weight in grams×3=volume in ml to add). 100 μl of blank brain lysate is used for preparation of standard curve samples while 100 μl of sample brain lysate is used for preparation of samples. To calculate brain levels, the concentration in ng/ml calculated from the standard curve is multiplied by the total volume of lysate (a value in ml estimated from the 3× volume of PBS added +1× volume to account for brain tissue itself) and then divided by the weight of the brain in grams. A value of 3× above the signal obtained from blank plasma or brain lysate is designated the limit of detection (LOD). The LOD for plasma is 2640 and for brain 459. The limit of quantitation (LOQ) is the lowest concentration at which back calculation yields a concentration within 20% of theoretical. The LOQ for both plasma and brain is 5 ng/ml. In general back calculation of points on both curves yielded values within 20% of theoretical over 4 orders of magnitude (10,000 to 5 ng/ml) for both sample types.

Regarding `Cc1ccc(Cn2c(=N)n(CC(O)c3ccc(Cl)c(Cl)c3)c3ccccc32)cc1` (stereo not shown) [Compound 130699], at OX1R, the “Ca2+ response” value was “weaker response”. Moreover, the “Fold Induction, No Receptor_CRE” value in the series on No Receptor_CRE was found to be 0.797. Besides, the “acute reaction after injection” value in series [1] (20 mg/kg IP) is on record as “no acute reactions were noted”. Also, the AUC in series [1] (brain) is 133,194 min*ng/g; in series [1] (male, C57BL/6, mouse, plasma, read-out: AUC (converted)) it was 2400 ng·h/mL. In addition, the Clearance was found to be 2.9 g/min in series [1] (brain) and 2.7 mL/min in series [1] (plasma). Moreover, the Kp in series [1] (male, C57BL/6, mouse, read-out: Blood Brain Penetration Ratio: AUC brain/AUC plasma) worked out at 0.9; in series [1] (male, C57BL/6, mouse, read-out: Blood Brain Penetration Ratio: Cmax brain/Cmax plasma), 0.3. In addition, the maximum concentration (Cmax) in series [1] (male, C57BL/6, mouse, brain) was 337 ng/g; in series [1] (male, C57BL/6, mouse, plasma) it was 1080 ng/mL. In addition, the half-life in series [1] (male, C57BL/6, mouse, brain) stood at 3.39 h; in series [1] (male, C57BL/6, mouse, plasma), 2.75 h.

A word on the AUC: it is the area under the concentration-time curve, a measure of exposure. Usually Cmax stands for the maximum level reached in the sampled fluid or tissue. By half-life is commonly meant the time in which the quantity being followed falls by half.
